Several values for one entry are separate records, joined by “and”; a condition that tells them apart may be missing. Identical values can stand only once.
Key:
[1] = system: CaNT tumours; assay: Bound adducts of NITP in cells from tumours, fluorescent immunochemical staining and flow cytometry; format: in vivo, CBA mice; details: for proportion of total cells in the region of bound NITP metabolites: control region 1%
From the text: Britsh Journal of Cancer (1995) 72, 1462-1468 ft (32) 1995 Stockton Press All rights reserved 0007-0920/95 $12.00 Pharmacokinetics and binding of the bioreductive probe for hypoxia, NITP: effect of route of administration RJ Hodgkiss, MRL Stratford, MF Dennis and SA Hill Gray Laboratory Cancer Research Trust, P.O. Box 100, Mount Vernon Hospital, Northwood, Middlesex HA6 2JR, UK. Summary The novel compound 7-[4'-(2-nitroimidazol-l-yl)-butyl]-theophylline (NITP) can be used as an immunologically detectable probe for hypoxic cells. Because of the limited water solubility of NITP, it has been administered dissolved in peanut oil with 10% dimethylsulphoxide (DMSO). A new aqueous formulation has been devised, based on a 50% solution of a modified P-cyclodextrin (Molecusol HPB), which increases the water solubility of NITP 10-fold. The pharmacokinetics of NITP in plasma and tumours have been compared following oral and intraperitoneal (i.p.) administration of the NITP in Molecusol, i.p. administration of NITP dissolved in peanut oil + 10% DMSO and injection of a near-saturated aqueous solution of the drug intravenously via the tail vein or i.p. or directly into the tumours. Binding of the marker to hypoxic cells within tumours was also measured after the different routes of administration. The Molecusol vehicle was unexpectedly toxic when administered i.p., but there was no toxicity from NITP dissolved in Molecusol when administered orally. […] Binding of NITP within tumours has also been observed following direct injection of the drug, with minimal whole-body exposure to NITP. […] In particular, bioreductive drugs are specifically activated in hypoxic cells and can target those cells that are resistant to radiotherapy (for review see Stratford, 1992). Numerous methods have been proposed for measuring tumour hypoxia (for review see Hodgkiss and Wardman, 1992), in the hope that this would allow treatment to be optimised for individual patients on the basis of the oxygen status of their tumours. In particular, the hypoxia-specific binding of isotopically labelled 2-nitroimidazoles has been used to identify hypoxic cells in tumours, (e.g. Chapman et al., 1982; Franko and Chapman, 1982; Garrecht and Chap- man, 1983; Raleigh et al., 1985; Rasey et al., 1985; Urtasun et al., 1986). […] The novel compound 7-[4'-(2-nitroimidazol-1-yl)-butyl]- theophylline (NITP), has been described as an immuno- logically detectable bioreductive probe for hypoxic cells (Hodgkiss et al., 1991), and appears to offer promise as a method of quantifying tumour hypoxia in vivo. […]

[2] = Toxicity and tolerability after oral or i.p. administration; format: in vivo, mice
From the text: (§1) Britsh Journal of Cancer (1995) 72, 1462-1468 ft (32) 1995 Stockton Press All rights reserved 0007-0920/95 $12.00 Pharmacokinetics and binding of the bioreductive probe for hypoxia, NITP: effect of route of administration RJ Hodgkiss, MRL Stratford, MF Dennis and SA Hill Gray Laboratory Cancer Research Trust, P.O. Box 100, Mount Vernon Hospital, Northwood, Middlesex HA6 2JR, UK. Summary The novel compound 7-[4'-(2-nitroimidazol-l-yl)-butyl]-theophylline (NITP) can be used as an immunologically detectable probe for hypoxic cells. Because of the limited water solubility of NITP, it has been administered dissolved in peanut oil with 10% dimethylsulphoxide (DMSO). A new aqueous formulation has been devised, based on a 50% solution of a modified P-cyclodextrin (Molecusol HPB), which increases the water solubility of NITP 10-fold. […] Binding of the marker to hypoxic cells within tumours was also measured after the different routes of administration. […] The novel compound 7-[4'-(2-nitroimidazol-1-yl)-butyl]- theophylline (NITP), has been described as an immuno- logically detectable bioreductive probe for hypoxic cells (Hodgkiss et al., 1991), and appears to offer promise as a method of quantifying tumour hypoxia in vivo. […]

[3] = Solubility of NITP in water and in Molecusol HPB solution; format: physicochemical; details: Molecusol HPB solution vs water
From the text: as §1

[4] = Plasma and tumour pharmacokinetics of NITP by HPLC after different routes and vehicles; format: in vivo, CBA mice; details: for AUC s.e.m. Tumour: CaNT tumour
From the text: Britsh Journal of Cancer (1995) 72, 1462-1468 ft (32) 1995 Stockton Press All rights reserved 0007-0920/95 $12.00 Pharmacokinetics and binding of the bioreductive probe for hypoxia, NITP: effect of route of administration RJ Hodgkiss, MRL Stratford, MF Dennis and SA Hill Gray Laboratory Cancer Research Trust, P.O. Box 100, Mount Vernon Hospital, Northwood, Middlesex HA6 2JR, UK. Summary The novel compound 7-[4'-(2-nitroimidazol-l-yl)-butyl]-theophylline (NITP) can be used as an immunologically detectable probe for hypoxic cells. Because of the limited water solubility of NITP, it has been administered dissolved in peanut oil with 10% dimethylsulphoxide (DMSO). A new aqueous formulation has been devised, based on a 50% solution of a modified P-cyclodextrin (Molecusol HPB), which increases the water solubility of NITP 10-fold. The pharmacokinetics of NITP in plasma and tumours have been compared following oral and intraperitoneal (i.p.) administration of the NITP in Molecusol, i.p. administration of NITP dissolved in peanut oil + 10% DMSO and injection of a near-saturated aqueous solution of the drug intravenously via the tail vein or i.p. or directly into the tumours. Binding of the marker to hypoxic cells within tumours was also measured after the different routes of administration. The Molecusol vehicle was unexpectedly toxic when administered i.p., but there was no toxicity from NITP dissolved in Molecusol when administered orally. […] Binding of NITP within tumours has also been observed following direct injection of the drug, with minimal whole-body exposure to NITP. […] In particular, bioreductive drugs are specifically activated in hypoxic cells and can target those cells that are resistant to radiotherapy (for review see Stratford, 1992). Numerous methods have been proposed for measuring tumour hypoxia (for review see Hodgkiss and Wardman, 1992), in the hope that this would allow treatment to be optimised for individual patients on the basis of the oxygen status of their tumours. In particular, the hypoxia-specific binding of isotopically labelled 2-nitroimidazoles has been used to identify hypoxic cells in tumours, (e.g. Chapman et al., 1982; Franko and Chapman, 1982; Garrecht and Chap- man, 1983; Raleigh et al., 1985; Rasey et al., 1985; Urtasun et al., 1986). Immunological detection of 2-nitroimidazoles has been described (Raleigh et al., 1987; Hodgkiss et al., 1991; Lord et al., 1993) and avoids the administration of radioactive labels, which would be particularly desirable for clinical measurement of tumour hypoxia. The novel compound 7-[4'-(2-nitroimidazol-1-yl)-butyl]- theophylline (NITP), has been described as an immuno- logically detectable bioreductive probe for hypoxic cells (Hodgkiss et al., 1991), and appears to offer promise as a method of quantifying tumour hypoxia in vivo. However, the water solubility of NITP is only c. 2 x 10^-3 M at 20'C and its administration in vivo, dissolved in water or saline, would require an inconveniently large volume of drug solution to be given to achieve an adequate dose level of c. 0.45 lsmol g-'. To circumvent this problem, NITP has been administered in vivo as a solution in peanut oil + 10% DMSO (Hodgkiss et al., 1991). While this formulation has given satisfactory results in the tumour models used, it is clearly unsuitable for clinical administration, and an aqueous preparation of the drug would be preferable. ,-Cyclodextrin consists of seven glucose units joined into a ring, taking up the shape of a three-dimensional torus with a hydrophobic cavity. 'Guest' molecules of a suitable size can fit into the central cavity, and the inclusion complex thus formed can increase the aqueous solubility of lipophilic com- pounds (Szejtli, 1982). […] This paper describes the use of a modified 2-hydroxy-propyl-p-cyclodextrin (Mole- cusol HPB) as an agent for preparing aqueous solutions of NITP. […]

[5] = 0.45 umol g-1 i.p. in peanut oil + 10% DMSO
[6] = 0.45 and 0.09 umol g-1 oral in Molecusol
[7] = Molecusol HPB i.p. 0.09 umol g-1
[8] = Molecusol HPB i.p. 0.45 umol g-1
[9] = Molecusol HPB oral 0.09 umol g-1
[10] = Molecusol HPB oral 0.45 umol g-1, pooled data for three experiments
[11] = Molecusol HPB oral (footnote a), dose printed 0
[12] = Peanut oil/DMSO i.p. 0.45 umol g-1
[13] = plasma, Molecusol HPB i.p. 0.09 umol g-1
[14] = plasma, Molecusol HPB i.p. 0.45 umol g-1
[15] = plasma, Molecusol HPB oral 0.09 umol g-1
[16] = plasma, Molecusol HPB oral 0.45 umol g-1, pooled data for three experiments
[17] = plasma, Molecusol HPB oral (footnote a), dose printed 0
[18] = plasma, Peanut oil/DMSO i.p. 0.45 umol g-1
[19] = plasma, Saline i.p. 0.015 umol g-1
[20] = plasma, Saline i.t. 0.006 umol g-1
[21] = saline i.v. 0.015 umol g-1, non-linear regression, biphasic curve

Cn1c(=O)c2c(ncn2CCCCn2ccnc2[N+](=O)[O-])n(C)c1=O [NITP, 7-[4'-(2-nitroimidazol-l-yl)-butyl]-theophylline]
binding of NITP in tumours ([1]; direct injection of NITP saline solution into tumours): substantial binding | binding of NITP in tumours ([1]; i.v. injection of 2 x 10^-3 M solution in saline): little binding | proportion of total cells in the region of bound NITP metabolites ([1]; tumour excised 30 min after oral 0.09 umol g-1 NITP in Molecusol): 17% | proportion of total cells in the region of bound NITP metabolites ([1]; tumour excised 90 min after oral 0.45 umol g-1 NITP in Molecusol): 19% | toxicity ([2]; NITP in Molecusol i.p., dose reduced by a factor of 5 (0.09 umol g-1)): no toxicity | tolerability ([2]; oral, up to 0.9 umol g-1 NITP in Molecusol (20 umol g-1)): well tolerated with no obvious toxicity | improvement in the solubility of NITP over that in water alone [3]: 10 fold and ~ 10 fold | peak plasma concentration relative to that predicted from a uniform distribution of the compound administered [4, 5]: about 20% | time plasma remains at plateau level [4, 5]: about 50 min | time to reach plasma plateau level [4, 5]: 10 to 15 min | peak plasma level relative to that expected from a uniform distribution of the drug [4, 6]: about 20% | plasma clearance half-life [4, 6]: 22 min | AUC s.e.m. Tumour [4, 7]: 2.01 M min (x 103) | AUC s.e.m. Tumour [4, 8]: 21.2 M min (x 103) | AUC s.e.m. Tumour [4, 9]: 0.310 M min (x 103) | AUC s.e.m. Tumour [4, 10]: 4.09 M min (x 103) | AUC s.e.m. Tumour [4, 11]: 4.62 M min (x 103) | AUC s.e.m. Tumour [4, 12]: 6.72 M min (x 103) | AUC s.e.m. Tumour ([4]; Saline i.t. 0.006 umol g-1): 2.64 M min (x 103) | AUC s.e.m. Plasma [4, 7]: 2.54 M min (x 103) | AUC s.e.m. Plasma [4, 8]: 27.4 M min (x 103) | AUC s.e.m. Plasma [4, 9]: 0.543 M min (x 103) | AUC s.e.m. Plasma [4, 10]: 5.41 M min (x 103) | AUC s.e.m. Plasma [4, 11]: 5.73 M min (x 103) | AUC s.e.m. Plasma [4, 12]: 9.26 M min (x 103) | AUC s.e.m. Plasma ([4]; Saline i.p. 0.015 umol g-1): 0.100 M min (x 103) | AUC s.e.m. Plasma ([4]; Saline i.t. 0.006 umol g-1): 0.054 M min (x 103) | AUC s.e.m. Plasma ([4]; Saline i.v. 0.005 umol g-1): 0.041 M min (x 103) | AUC s.e.m. Plasma ([4]; Saline i.v. 0.015 umol g-1): 0.177 M min (x 103) | Half life s.e.m. [4, 13]: 19.7 min | Peak concentration + s.e.m. [4, 13]: 58.2 µM | Half life s.e.m. [4, 14]: 36.6 min | Peak concentration + s.e.m. [4, 14]: 401 µM | Half life s.e.m. [4, 15]: 22.4 min | Peak concentration + s.e.m. [4, 15]: 16.2 µM | Half life s.e.m. [4, 16]: 26.5 min | Peak concentration + s.e.m. [4, 16]: 104 µM | Half life s.e.m. [4, 17]: 22.3 min | Peak concentration + s.e.m. [4, 17]: 127 µM | Half life s.e.m. [4, 18]: 33.1 min | Peak concentration + s.e.m. [4, 18]: 96.3 µM | Half life s.e.m. [4, 19]: 7.84 min | Peak concentration + s.e.m. [4, 19]: 6.78 µM | Half life s.e.m. [4, 20]: 9.79 min | Peak concentration + s.e.m. [4, 20]: 3.68 µM | Half life s.e.m. ([4]; plasma, Saline i.v. 0.005 umol g-1): 8.86 min | Peak concentration ([4]; plasma, Saline i.v. 0.005 umol g-1, 1 min, n = 1): 4.06 µM | Half life s.e.m. ([4]; plasma, Saline i.v. 0.015 umol g-1, linear fit to terminal elimination phase): 9.64 min | volume of distribution ([4]; saline i.v. 0.015 umol g-1, non-linear regression data): 0.63 mL/g | distribution phase half-life [4, 21]: 1.7 min | elimination half-life [4, 21]: 9.2 min | factor by which plasma concentrations lie below the tumour concentration ([4]; single i.t. injection of 0.1 ml 2 x 10^-3 M NITP): ≥ 20

Source: article PMC2034084, “Pharmacokinetics and binding of the bioreductive probe for hypoxia, NITP: effect of route of administration” (British Journal of Cancer, 1995)
